This is an account of results in patent US12624018B1, “Inhibitors of RIPK2 and medical uses thereof” (Odyssey Therapeutics, Inc., priority 2022, dated 2026).

The target in this experiment is T1, RIPK2 enzyme (Homo sapiens, UniProt O43353).
T1 construct: purchased Carna 09-128
T1 sequence (O43353 1-299 limits assumed): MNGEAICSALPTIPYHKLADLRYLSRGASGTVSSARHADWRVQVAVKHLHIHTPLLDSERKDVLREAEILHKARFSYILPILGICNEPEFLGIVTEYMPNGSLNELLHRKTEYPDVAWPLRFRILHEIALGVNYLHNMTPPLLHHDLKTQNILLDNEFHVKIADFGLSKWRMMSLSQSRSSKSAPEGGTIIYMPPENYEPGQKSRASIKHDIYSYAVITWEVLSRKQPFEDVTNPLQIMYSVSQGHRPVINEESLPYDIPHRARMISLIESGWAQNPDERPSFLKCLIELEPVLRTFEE
The experiment is described as follows: RIPK2 inhibition (ADP-Glo Kinase Assay). In kind it is biochemical. The note with it: RIPK2 5 nM, ATP 150 μM, MBP substrate, read-out: RIPK2 IC50. The method in brief:
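Human RIPK2 (5 nM) preincubated with compound 30 min at room temperature in 50 mM HEPES pH 7.5, 10 mM MgCl2, 2 mM DTT, 1 mM EGTA, 0.01% Brij-35, 0.05% BSA; native swine MBP as substrate. ADP formed quantified by ADP-Glo luminescence; percent inhibition relative to DMSO and no-enzyme controls.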
(In general: ADP-Glo first removes unused ATP, then detects ADP through luciferase.)
As to `COc1cc2nccc(Oc3ccc(CC(=O)Nc4cnn(C(C)(C)C)c4)c(F)c3)c2cc1S(=O)(=O)C(C)(C)C` [Compound 3, N-(1-(tert-butyl)-1H-pyrazol-4-yl)-2-(4-((6-(tert-butylsulfonyl)-7-methoxyquinolin-4-yl)oxy)-2-fluorophenyl)acetamide], the concentration for half-maximal inhibition (IC50) was less than 2.5 nM.

Consider `CC(C)(C)n1cc(NC(=O)Cc2ncc(Oc3ccnc4ccc(F)cc34)cn2)cn1` [Compound 4], for which the IC50 was found to be 61.9 nM.

As for `CC(C)(C)n1cc(NC(=O)Cc2ncc(Oc3ncnc4ccc(F)cc34)cc2F)cn1` [Compound 5, N-(1-(tert-butyl)-1H-pyrazol-4-yl)-2-(3-fluoro-5-((6-fluoroquinazolin-4-yl)oxy)pyridin-2-yl)acetamide], the concentration for half-maximal inhibition (IC50) stood at 99.7 nM.

As to `COc1ccc2nccc(Oc3cnc(CC(=O)Nc4cnn(C(C)(C)C)c4)c(F)c3)c2c1` [Compound 6, N-(1-(tert-butyl)-1H-pyrazol-4-yl)-2-(3-fluoro-5-((6-methoxyquinolin-4-yl)oxy)pyridin-2-yl)acetamide], the IC50 was determined as 9 nM.

`CC(C)(C)n1cc(NC(=O)Cc2ncc(Oc3ncnc4ccc(Cl)cc34)cc2F)cn1` [Compound 7, N-(1-(tert-butyl)-1H-pyrazol-4-yl)-2-(5-((6-chloroquinazolin-4-yl)oxy)-3-fluoro-pyridin-2-yl)acetamide]: the IC50 is 24 nM.

Turning to `COc1ccc2ncnc(Oc3cnc(CC(=O)Nc4cnn(C(C)(C)C)c4)c(F)c3)c2c1` [Compound 9, N-(1-(tert-butyl)-1H-pyrazol-4-yl)-2-(3-fluoro-5-((6-methoxyquinazolin-4-yl)oxy)pyridin-2-yl)acetamide], the IC50 came to 21.8 nM.

In the case of `COc1ccc2ncnc(Oc3cnc(CC(=O)Nc4cnn(C(C)(C)C)c4)c(Cl)c3)c2c1` [Compound 10, N-(1-(tert-butyl)-1H-pyrazol-4-yl)-2-(3-chloro-5-((6-methoxyquinazolin-4-yl)oxy)pyridin-2-yl)acetamide], the IC50 was 43.5 nM.

With `COc1ccc2ncnc(Oc3cnc(CC(=O)Nc4cc(C(C)(C)C)[nH]n4)c(F)c3)c2c1` [Compound 12, N-(5-(tert-butyl)-1H-pyrazol-3-yl)-2-(3-fluoro-5-((6-methoxyquinazolin-4-yl)oxy)pyridin-2-yl)acetamide], the concentration for half-maximal inhibition (IC50) is 11.6 nM.

On to `COc1ccc2nccc(Oc3cnc(CC(=O)Nc4cc(C(C)(C)C)[nH]n4)c(F)c3)c2c1` [Compound 13, N-(5-(tert-butyl)-1H-pyrazol-3-yl)-2-(3-fluoro-5-((6-methoxyquinolin-4-yl)oxy)pyridin-2-yl)acetamide], for which the IC50 came out at 3.5 nM.

For the compound `CC(C)(C)n1cc(NC(=O)Cc2ccc(Oc3ncnc4ccc(N5CCOCC5)cc34)cc2F)cn1` [Compound 14, N-(1-(tert-butyl)-1H-pyrazol-4-yl)-2-(2-fluoro-4-((6-morpholinoquinazolin-4-yl)oxy)phenyl)acetamide], the IC50 came out at 23.7 nM.

Consider `COc1ccc2ncnc(Oc3ccc(CC(=O)Nc4cc(C(C)(C)CO)[nH]n4)c(F)c3)c2c1` [Compound 15, 2-(2-fluoro-4-((6-methoxy-quinazolin-4-yl)oxy)phenyl)-N-(5-(1-hydroxy-2-methylpropan-2-yl)-1H-pyrazol-3-yl)acetamide], for which the IC50 came to 34.9 nM.

For `CC(C)(C)n1cc(NC(=O)Cc2ccc(Oc3ncnc4ccc(OCCO)cc34)cc2F)cn1` [Compound 16, N-(1-(tert-butyl)-1H-pyrazol-4-yl)-2-(2-fluoro-4-((6-(2-hydroxyethoxy)quinazolin-4-yl)oxy)phenyl)acetamide], the IC50 is 9.3 nM.

On to `CC(C)(C)n1cc(NC(=O)Cc2ccc(Oc3ncnc4ccc(OCCN5CCCC5)cc34)cc2F)cn1` [Compound 17, N-(1-(tert-butyl)-1H-pyrazol-4-yl)-2-(2-fluoro-4-((6-(2-(pyrrolidin-1-yl)ethoxy)quinazolin-4-yl)oxy)phenyl) acetamide], for which the half-maximal inhibitory concentration (IC50) came to 27.4 nM.

For `CN1CC(Oc2ccc3ncnc(Oc4ccc(CC(=O)Nc5cnn(C(C)(C)C)c5)c(F)c4)c3c2)C1` [Compound 18, N-(1-(tert-butyl)-1H-pyrazol-4-yl)-2-(2-fluoro-4-((6-((1-methyl-azetidin-3-yl)oxy)quinazolin-4-yl)oxy)phenyl) acetamide], the IC50 was 7.9 nM.

For the compound `CN1CCC(Oc2ccc3ncnc(Oc4ccc(CC(=O)Nc5cnn(C(C)(C)C)c5)c(F)c4)c3c2)CC1` [Compound 19, N-(1-(tert-butyl)-1H-pyrazol-4-yl)-2-(2-fluoro-4-((6-((1-methyl-piperidin-4-yl)oxy)quinazolin-4-yl)oxy)phenyl) acetamide], the concentration for half-maximal inhibition (IC50) stood at 4.2 nM.

On to `CC(C)(C)c1ccnc(NC(=O)Cc2ccc(Oc3ncnc4ccc(F)cc34)cc2F)c1` [Compound 21, N-(4-(tert-butyl)pyridin-2-yl)-2-(2-fluoro-4-((6-fluoroquinazolin-4-yl)oxy)phenyl) acetamide], for which the IC50 came out at 36.6 nM.

For the compound `CC(C)c1ccnc(NC(=O)Cc2ccc(Oc3ncnc4ccc(F)cc34)cc2F)c1` [Compound 22, 2-(2-fluoro-4-((6-fluoroquinazolin-4-yl)oxy)phenyl)-N-(4-isopropylpyridin-2-yl)acetamide], the 50% inhibitory concentration (IC50) is 23.9 nM.

For `COc1ccc2ncnc(Oc3ccc(CC(=O)Nc4noc(C(C)(C)C)n4)c(F)c3)c2c1` [Compound 23, N-(5-(tert-butyl)-1,2,4-oxadiazol-3-yl)-2-(2-fluoro-4-((6-methoxy-quinazolin-4-yl)oxy)phenyl) acetamide], the half-inhibitory concentration (IC50) amounted to 14.4 nM.

As for `CC(C)(C)n1cc(NC(=O)Cc2ccc(Oc3ncnc4ccc(C(N)=O)cc34)cc2F)cn1` [Compound 24, 4-(4-(2-((1-(tert-butyl)-1H-pyrazol-4-yl)amino)-2-oxoethyl)-3-fluoro-phenoxy) quinazoline-6-carboxamide], the IC50 is 7.4 nM.

Take `CNC(=O)c1ccc2ncnc(Oc3ccc(CC(=O)Nc4cnn(C(C)(C)C)c4)c(F)c3)c2c1` [Compound 25, 4-(4-(2-((1-(tert-butyl)-1H-pyrazol-4-yl)amino)-2-oxoethyl)-3-fluoro-phenoxy)-N-methyl-quinazoline-6-carboxamide]: the concentration for half-maximal inhibition (IC50) came out at 4.3 nM.

Turning to `CN(C)C(=O)c1ccc2ncnc(Oc3ccc(CC(=O)Nc4cnn(C(C)(C)C)c4)c(F)c3)c2c1` [Compound 26, 4-(4-(2-((1-(tert-butyl)-1H-pyrazol-4-yl)amino)-2-oxoethyl)-3-fluorophenoxy)-N,N-dimethylquinazoline-6-carboxamide], the IC50 was found to be 21 nM.

As to `CC(C)(C)n1cc(NC(=O)Cc2ccc(Oc3ncnc4ccc(C(=O)N5CCCC5)cc34)cc2F)cn1` [Compound 27, N-(1-(tert-butyl)-1H-pyrazol-4-yl)-2-(2-fluoro-4-((6-(pyrrolidine-1-carbonyl)quinazolin-4-yl)oxy)phenyl) acetamide], the IC50 is 19.2 nM.

As to `COc1ccc2ncnc(Oc3ccc(CC(=O)Nc4cc(C(C)(C)C)ccn4)c(F)c3)c2c1` [Compound 28, N-(4-(tert-butyl)pyridin-2-yl)-2-(2-fluoro-4-((6-methoxy-quinazolin-4-yl)oxy)phenyl) acetamide], the concentration for half-maximal inhibition (IC50) came out at 12.7 nM.

In the case of `COc1ccc2ncnc(Oc3cnc(CC(=O)Nc4cc(C(C)(C)C)ccn4)c(F)c3)c2c1` [Compound 29, N-(4-(tert-butyl)pyridin-2-yl)-2-(3-fluoro-5-((6-methoxy-quinazolin-4-yl)oxy)pyridin-2-yl)acetamide], the IC50 came to 5.2 nM.

As to `COc1ccc2ncnc(Oc3ccc(CC(=O)Nc4cc(C(C)(C)C)cnn4)c(F)c3)c2c1` [Compound 30, N-(5-(tert-butyl)pyridazin-3-yl)-2-(2-fluoro-4-((6-methoxy-quinazolin-4-yl)oxy)phenyl) acetamide], the IC50 came to 7.2 nM.

Take `COc1ccc2ncnc(Oc3cnc(CC(=O)Nc4cc(C(C)(C)C)cnn4)c(F)c3)c2c1` [Compound 31, N-(5-(tert-butyl)pyridazin-3-yl)-2-(3-fluoro-5-((6-methoxy-quinazolin-4-yl)oxy)pyridin-2-yl)acetamide]: the IC50 came to 19.8 nM.

With `COc1ccc2ncnc(Oc3ccc(CC(=O)Nc4cc(C(C)(C)C)ncn4)c(F)c3)c2c1` [Compound 32, N-(6-(tert-butyl)pyrimidin-4-yl)-2-(2-fluoro-4-((6-methoxyquinazolin-4-yl)oxy)phenyl)acetamide], the IC50 was 13.7 nM.

On to `COc1ccc2ncnc(Oc3cnc(CC(=O)Nc4cc(C(C)(C)C)ncn4)c(F)c3)c2c1` [Compound 33, N-(6-(tert-butyl)pyrimidin-4-yl)-2-(3-fluoro-5-((6-methoxy-quinazolin-4-yl)oxy)pyridin-2-yl)acetamide], for which the IC50 turned out to be 85.4 nM.

Turning to `COc1ccc2ncnc(Oc3ccc(CC(=O)Nc4cc(C5(C(F)(F)F)CC5)ccn4)c(F)c3)c2c1` [Compound 34, 2-(2-fluoro-4-((6-methoxyquinazolin-4-yl)oxy)phenyl)-N-(4-(1-(trifluoromethyl)cyclopropyl)pyridin-2-yl)acetamide], the IC50 came to 33.3 nM.

`COc1ccc2ncnc(Oc3ccc(CC(=O)Nc4cc(C(C)(C)CO)ccn4)c(F)c3)c2c1` [Compound 35, 2-(2-fluoro-4-((6-methoxy-quinazolin-4-yl)oxy)phenyl)-N-(4-(1-hydroxy-2-methylpropan-2-yl)pyridin-2-yl)acetamide]: the IC50 amounted to 29.6 nM.

For `CC(C)(C)n1cc(NC(=O)Cc2ccc(Oc3ccnc4ccc(P(C)(C)=O)cc34)cc2F)cn1` [Compound 36, N-(1-(tert-butyl)-1H-pyrazol-4-yl)-2-(4-((6-(dimethylphosphoryl)quinolin-4-yl)oxy)-2-fluorophenyl)acetamide], the half-maximal inhibitory concentration (IC50) was 4.7 nM.

With `COc1ccc2ncnc(Oc3ccc(CC(=O)Nc4cc(C(C)(C)C)n(C)n4)c(F)c3)c2c1` [Compound 37, N-(5-(tert-butyl)-1-methyl-1H-pyrazol-3-yl)-2-(2-fluoro-4-((6-methoxy-quinazolin-4-yl)oxy)phenyl) acetamide], the IC50 is 7.8 nM.

A word on the IC50: it is the midpoint of a concentration-inhibition curve.
